Laboratory results: patent US9144595B2, “APLs for treating arthritis” (University of Tennessee Research Foundation, priority 2009, dated 2015)
Values joined by “and” are separate entries in the source; they are usually repeats but may differ in a detail not shown here. Equal values may be shown once.

What was measured:
DR1 Transgenic mice [1] = assay: Oral (gavage) APL A12 suppression of CIA in DR1 transgenic mice; assay type: in vivo, mouse; settings: for arthritis severity: FIG. 1
[2] = tested on: splenocytes and lymph node cells from DR1 Transgenic mice; assay: Cytokine secretion by splenocytes and lymph node cells of DR1 Transgenic mice immunized with CII or Analog A12; assay type: cell-based, mouse
Text: One of the most important characteristics of the A12 analog peptide was its ability to induce a Th2-type cytokine secretion profile. In this set of experiments, DR1 transgenic mice were immunized with A12 peptide or CII emulsified with CFA. […] In contrast, cells from mice immunized with CII generated predominantly a Th1 response to the wild-type peptide. […] The ability to induce the secretion of Th2 cytokines may explain the profound suppressive effects A12 has on the development of CIA.
One of the most important characteristics of the A12 analog peptide is its ability to reduce a Th1 cytokine profile and induce a Th2-type cytokine secretion profile in humans and in DR1 transgenic mice. In work we have published, DR1 transgenic mice were immunized with A12 peptide or CII emulsified with CFA. […] In contrast, cells from mice immunized with CII generated multiple cytokines, but predominantly a Th1 response to the wild-type peptide. Importantly, although immunized with CII, they responded to A12 with only a Th2 response.

[3] = tested on: splenocytes of DR1 transgenic mice; assay: Oral APL A12: IFNγ production by cultured splenocytes of DR1 transgenic mice; assay type: in vivo, mouse
DR1 Transgenic mice [4] = assay: Acute toxicity study of HC Peptide 1 in DR1 transgenic mice; assay type: in vivo, mouse; settings: for Weight of Mice / Weight of Livers / Weight of Spleens: individual mice, HC Peptide 1 (100 μg) Fed; for Weight of Livers / Weight of Spleens: at sacrifice
Experimental: Eight DR1 transgenic mice (C57 BL/10 containing a human transgene for DR1) were studied in these acute toxicity studies. The four female litter mates were nine weeks old at the time the studies were initiated. Two female mice and two male mice were randomly assigned to the control group and two female and two male mice were randomly assigned to be treated with HC Peptide 1. Mice were gavaged once daily for seven days with 100 μl IV saline containing 100 μg HC Peptide1. Mice were weighed before treatment and every two days. Mice were examined daily for general healthy appearance, glossy coat, ruffling of hair, lethargy, ad lib behavior, shivering or vigor. At sacrifice on day 7, blood was collected for complete blood count and chemistries were performed by the Clinical Pathology Services, Charles River Laboratories, 251 Ballardvale Street, Wilmington, Mass. 01887. Food and water consumption were monitored in each cage. Liver and spleen were weighed at sacrifice of each mouse. Sections of liver, spleen, kidney, heart, lung, stomach, and small and large intestine, were placed in 10% formalin and processed for routine H and E sections by the Histology Laboratory at the Memphis VAMC. Mice were housed in an IACUC approved facility with 12 hours light and 12 hours darkness.
Changes in body weight over the six days mice were gavaged with 100× the human HC Peptide 1 dose were similar to mice gavaged with IV saline (See Table IX). Water and food consumption were similar between HC Peptide 1 treated and mice gavaged with IV saline (Table X). Upon sacrifice at day 7, the weight of livers and spleens were similar between mice gavaged with 100× the human dose of HC Peptide 1 and mice gavaged with IV saline (See Table XI). The complete blood counts (CBC) after 6 days gavage of DRB1*0401 transgenic mice with 100× the human HC Peptide 1 dose were similar to litter mates gavaged with IV saline. Plasma chemistries were similar in the […] transgenic mice gavaged with 100× the human dose of HC Peptide 1 compared to litter mates gavaged with IV saline.

[5] = tested on: Spleen tyrosine kinase (Syk); assay: Syk phosphorylation in CD4+ T cells of DR1/TCR transgenic mice (flow cytometry); assay type: cell-based, mouse; settings: APCs prepulsed with peptide, compared with media controls
Text: Since T cells clearly responded to A12 differently than to the wild type A2 peptide, we analyzed them for the possibility that they might be utilizing an alternative signaling pathway. Spleen tyrosine kinase (Syk), a kinase ordinarily utilized by B cells was selected for further analysis. In these experiments, CD4^+ T-cells from the DR1/TCR transgenic mice were purified by negative selection (using a Miltenyi kit) and stained with an antibody specific for phospho Syk following exposure to APCs prepulsed with either A2 or A12. […] Histograms were generated using flow cytometry with gating specifically on the CD4^+ population, confirming that the changes observed were produced by T-cells.
FIGS. 5A and 5B show T cell signaling induced by A2 and A12. Flow cytometry was performed using purified CD4+ T cells from spleens of DR1 TCR Tg mice. The T cells were stimulated by APCs pre-pulsed with A2, A12 or no peptide (Control) for 5 minutes. The cells were then fixed, permeabilized, and stained with an antibody specific for phospho-Syk (Tyr 323) (left panel) or phospho-ERK 1/2 (right panel) and analyzed by flow cytometry. Both plots are gated on CD4 T cells. Axes 510, 540, show the number of events and axes 515, 545 show a logarithmic scale for Anti-phospho Erk and Syk respectively, for FIGS. 5A and 5B. In FIG. 5A line 520 is for A2 peptide, line 525 is the control, and line 530 is the A12 peptide. […]

Zap-70 = Zap-70 phosphorylation in CD4+ T cells of DR1/TCR transgenic mice (flow cytometry); assay type: cell-based, mouse; settings: APCs prepulsed with peptide; data not shown
[6] = Immunogen Analog A12, cultured with 100 μg/ml A12
[7] = Immunogen Analog A12, cultured with 100 μg/ml PPD
[8] = Immunogen Analog A12, cultured with 100 μg/ml Wild-type Peptide
[9] = Immunogen Analog A12, cultured with 100 μg/ml α1(II)
[10] = Immunogen CII, cultured with 100 μg/ml A12
[11] = Cage 1 Male (two mice), Days 1-2
[12] = Cage 1 Male (two mice), Days 3-4
[13] = Cage 1 Male (two mice), Days 5-6
[14] = Cage 1 Male (two mice), sum of Days 1-6 (unlabelled line)
[15] = Cage 3 Female (two mice), Days 1-2
[16] = Cage 3 Female (two mice), Days 3-4
[17] = Cage 3 Female (two mice), Days 5-6
[18] = Cage 3 Female (two mice), sum of Days 1-6 (unlabelled line)

LGPKGQTGEBGIAGAKGDQGPKGEBGPA [APL A12]
arthritis severity (DR1 Transgenic mice [1]; 10 μg gavaged 8 days over two weeks before CII immunization): significantly reduced | arthritis severity (DR1 Transgenic mice [1]; 50 μg gavaged 8 days over two weeks before CII immunization): significantly reduced | most effective dose (DR1 Transgenic mice [1]; given orally by gavage): 50 µg/day | development of arthritis induced by immunization with bovine CII (DR1 Transgenic mice [1]; low oral dose (10-50 μg), mice transgenic for human DR1): protects | CII induced arthritis (DR1 Transgenic mice [1]; mice bearing a transgene for human DR1): effective in reducing | IFN-γ [2, 6]: 0 pg/mL | IL-10 [2, 6]: 808 pg/mL | Il-4 [2, 6]: 31 pg/mL | IFN-γ [2, 7]: 2,225 pg/ml | IL-10 [2, 7]: 248 pg/mL | Il-4 [2, 7]: 0 pg/mL | IFN-γ [2, 8]: 175 pg/mL | IL-10 [2, 8]: 792 pg/mL | Il-4 [2, 8]: 23 pg/mL | IFN-γ [2, 9]: 0 pg/mL | IL-10 [2, 9]: 680 pg/mL | Il-4 [2, 9]: 45 pg/mL | IFN-γ [2, 10]: 0 pg/mL | IL-10 [2, 10]: 610 pg/mL | Il-4 [2, 10]: 40 pg/mL | IFNγ Levels in Splenocyte Culture ([3]; mice gavaged with 50 μg APL A12 8 times over 2 weeks, splenocytes cultured with PBS): 2 ± 3 pg/mL | IFNγ Levels in Splenocyte Culture ([3]; mice gavaged with 50 μg APL A12, splenocytes cultured with APL A12 50 μg/ml): 5 ± 10 pg/mL | IFNγ Levels in Splenocyte Culture ([3]; mice gavaged with 50 μg APL A12, splenocytes cultured with CII263-270 50 μg/ml): 12 ± 20 pg/mL | IFNγ Levels in Splenocyte Culture ([3]; mice gavaged with PBS, splenocytes cultured with APL A12 50 μg/ml): 65 ± 52 pg/mL | Plasma chemistries (DR1 Transgenic mice [4]; 100× the human dose vs IV saline): similar | general appearance or behavior (DR1 Transgenic mice [4]; 100× the proposed highest human dose by gavage, compared to littermates gavaged with IV saline): no differences | Chow Consumed (DR1 Transgenic mice [4]; [11]): 13.3 GMS | Water Consumed (DR1 Transgenic mice [4]; [11]): 15 MI | Chow Consumed (DR1 Transgenic mice [4]; [12]): 10.5 GMS | Water Consumed (DR1 Transgenic mice [4]; [12]): 10 MI | Chow Consumed (DR1 Transgenic mice [4]; [13]): 14.4 GMS | Water Consumed (DR1 Transgenic mice [4]; [13]): 15 MI | Chow Consumed (DR1 Transgenic mice [4]; [14]): 38.2 GMS | Water Consumed (DR1 Transgenic mice [4]; [14]): 40 MI | Chow Consumed (DR1 Transgenic mice [4]; [15]): 15.7 GMS | Water Consumed (DR1 Transgenic mice [4]; [15]): 12.5 MI | Chow Consumed (DR1 Transgenic mice [4]; [16]): 14.2 GMS | Water Consumed (DR1 Transgenic mice [4]; [16]): 9.5 MI | Chow Consumed (DR1 Transgenic mice [4]; [17]): 15.3 GMS | Water Consumed (DR1 Transgenic mice [4]; [17]): 13 MI | Chow Consumed (DR1 Transgenic mice [4]; [18]): 45.2 GMS | Water Consumed (DR1 Transgenic mice [4]; [18]): 35 MI | Weight of Mice (DR1 Transgenic mice [4]; Day 2, female mice): 21.6 GMS and 19.4 GMS | Weight of Mice (DR1 Transgenic mice [4]; Day 2, male mice): 22.4 GMS and 21.0 GMS | Weight of Mice (DR1 Transgenic mice [4]; Day 4, female mice): 21.0 GMS and 18.6 GMS | Weight of Mice (DR1 Transgenic mice [4]; Day 4, male mice): 21.6 GMS and 20.3 GMS | Weight of Mice (DR1 Transgenic mice [4]; Day 6, female mice): 21.9 GMS and 19.3 GMS | Weight of Mice (DR1 Transgenic mice [4]; Day 6, male mice): 22.7 GMS and 20.9 GMS | Weight of Mice (DR1 Transgenic mice [4]; Time 0, female mice): 21.6 GMS and 18.7 GMS | Weight of Mice (DR1 Transgenic mice [4]; Time 0, male mice): 22.4 GMS and 20.8 GMS | Weight of Livers (DR1 Transgenic mice [4]; female mice): 0.99 GMS and 0.87 GMS | Weight of Spleens (DR1 Transgenic mice [4]; female mice): 0.065 GMS and 0.07 GMS | Weight of Livers (DR1 Transgenic mice [4]; male mice): 1.14 GMS and 0.9 GMS | Weight of Spleens (DR1 Transgenic mice [4]; male mice): 0.09 GMS and 0.06 GMS | weight of livers and spleens (DR1 Transgenic mice [4]; sacrifice at day 7, 100× the human dose vs IV saline): similar | Water and food consumption (DR1 Transgenic mice [4]; vs mice gavaged with IV saline): similar | Syk phosphorylation [5]: induced significant Syk phosphorylation | Zap-70 phosphorylation (Zap-70): little effect
